Test results reported in patent US20140357487A1, “PLANTS HAVING INCREASED TOLERANCE TO HERBICIDES” (BASF SE, priority 2011, published 2014).

Experiments:
[1] = test system: transgenic soybean plants, Arabidopsis Q293S, event SDS-10204; assay: Greenhouse testing of transgenic soybean plants, Arabidopsis Q293S; format: in vivo, Glycine max; details: soybean SDS-10204, 5 days after herbicide treatment, average of 8 T1
Text: (§1) Various methods for the production of stably transformed plants are well known in the art. Coumarone-derivative herbicide tolerant soybean (Glycine max) or corn (Zea mays) plants can be produced by a method described by Olhoft et al. (US patent 2009/0049567). Briefly, HPPD or HST encoding polynucleotides are cloned into a binary vector using standard cloning techniques as described by Sambrook et al. (Molecular cloning (2001) Cold Spring Harbor Laboratory Press). The final vector construct contains an HPPD or HST encoding sequence flanked by a promoter sequence (e.g. the ubiquitin promoter (PcUbi) sequence) and a terminator sequence (e.g. the nopaline synthase terminator (NOS) sequence) and a resistance marker gene cassette (e.g. AHAS) (FIG. 2). Optionally, the HPPD or HST gene can provide the means of selection. Agrobacterium-mediated transformation is used to introduce the DNA into soybean's axillary meristem cells at the primary node of seedling explants. After inoculation and co-cultivation with Agrobacteria, the explants are transferred to shoot induction medium without selection for one week. The explants are subsequently transferred to shoot induction medium with 1-3 μM imazapyr (Arsenal) for 3 weeks to select for transformed cells. Explants with healthy callus/shoot pads at the primary node are then transferred to shoot elongation medium containing 1-3 μM imazapyr until a shoot elongates or the explant dies. After regeneration, transformants are transplanted to soil in small pots, placed in growth chambers (16 hr day/8 hr night; 25° C. day/23° C. night; 65% relative humidity; 130-150 mE m−2 s−1) and subsequently tested for the presence of the T-DNA via Taqman analysis. After a few weeks, healthy, transgenic positive, single copy events are transplanted to larger pots and allowed to grow in the growth chamber. Transformation of corn plants is done by a method described by McElver and Singh (WO 2008/124495). Plant transformation vector constructs containing HPPD or HST sequences are introduced into maize immature embryos via Agrobacterium-mediated transformation. Transformed cells are selected in selection media supplemented with 0.5-1.5 μM imazethapyr for 3-4 weeks. Transgenic plantlets are regenerated on plant regeneration media and rooted afterwards. Transgenic plantlets are subjected to TaqMan analysis for the presence of the transgene before being transplanted to potting mixture and grown to maturity in greenhouse. Arabidopsis thaliana is transformed with HPPD or HST sequences by floral dip method as described by McElver and Singh (WO 2008/124495). Transgenic Arabidopsis plants are subjected to Tag Man analysis for analysis of the number of integration loci. Transformation of Oryza sativa (rice) are done by protoplast transformation as described by Peng et al. (U.S. Pat. No. 6,653,529)
(§2) Transgenic plants expressing heterologous HPPD or HST enzymes are tested for tolerance against coumarone-derivative herbicides in greenhouse experiments.
(§3) For post emergence treatment, the test plants are first grown to a height of 3 to 15 cm, depending on the plant habit, and only then treated with the herbicides. For this purpose, the test plants are either sown directly and grown in the same containers, or they are first grown separately and transplanted into the test containers a few days prior to treatment.
(§4) Depending on the species, the plants are kept at 10-25° C. or 20-35° C. The test period extends over 3 weeks. During this time, the plants are tended and their response to the individual treatments is evaluated. […] Tolerance to coumarone-derivative herbicides can also be assessed in Arabidopsis. In this case transgenic Arabidopsis thaliana plants are assayed for improved tolerance to coumarone-derivative herbicides in 48-well plates. Seeds are surface sterilized by stirring for 5 min in ethanol+water (70+30 by volume), rinsing one time with ethanol+water (70+30 by volume) and two times with a sterile, deionized water. […]

[2] = test system: transgenic corn plants, Arabidopsis HPPD, event SDM-71884; assay: Greenhouse testing of transgenic corn plants, Arabidopsis HPPD; format: in vivo, Zea mays; details: corn SDM-71884, 5 days after herbicide treatment, average of 8 T1
Text: as §1, §2, §3, §4

[3] = molecular target: T1, Arabidopsis HPPD variant M335H, P336A (Arabidopsis thaliana, UniProt P93836, M335H/P336A); assay: HPPD activity assay, Arabidopsis HPPD mutant M335H, P336A; format: biochemical; details: normalized on Arabidopsis wild-type HPPD
T1 construct: PCR-based site directed mutagenesis of pEXP5-NT/TOPO®-AtHPPD is done; His6 (N); made in house; host or cells: E. coli BL21 (DE3)
T1 sequence (P93836 whole entry M335H/P336A): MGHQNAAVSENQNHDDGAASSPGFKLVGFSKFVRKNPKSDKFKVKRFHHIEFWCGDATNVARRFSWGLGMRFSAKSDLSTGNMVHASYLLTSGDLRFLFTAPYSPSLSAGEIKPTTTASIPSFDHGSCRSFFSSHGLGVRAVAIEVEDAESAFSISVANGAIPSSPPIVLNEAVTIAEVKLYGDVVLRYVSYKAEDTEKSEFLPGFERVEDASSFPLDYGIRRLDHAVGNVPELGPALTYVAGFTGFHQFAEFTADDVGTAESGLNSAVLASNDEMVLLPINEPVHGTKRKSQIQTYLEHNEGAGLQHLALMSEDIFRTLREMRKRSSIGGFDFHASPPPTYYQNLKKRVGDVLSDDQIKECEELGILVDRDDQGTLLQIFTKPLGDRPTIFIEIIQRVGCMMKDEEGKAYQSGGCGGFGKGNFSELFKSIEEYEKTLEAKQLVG
Description: HPPD produces homogentisic acid and CO2 from 4-hydroxyphenylpyruvate (4-HPP) and O2. The activity assay for HPPD is based on the analysis of homogentisic acid by reversed phase HPLC.
The assay mixture can contain 150 mM potassium phosphate buffer pH 7.0, 50 mM L-ascorbic acid, 1 μM FeSO4 and 7 μg of purified enzyme in a total volume of 1 ml.
Inhibitors are dissolved in DMSO (dimethylsulfoxide) to a concentration of 20 mM or 0.5 mM, respectively. From this stock solution serial five-fold dilutions are prepared in DMSO, which are used in the assay. The respective inhibitor solution accounts for 1% of the assay volume. […] After a preincubation of 30 min the reaction is started by adding 4-HPP to a final concentration of 0.1 mM. The reaction is allowed to proceed for 120 min at room temperature. The reaction is stopped by addition of 100 μl of 4.5 M phosphoric acid.
Activities are normalized by setting the uninhibited enzyme activity to 100%. IC50 values are calculated using non-linear regression.
The assay mixture can contain 150 mM potassium phosphate buffer pH 7.0, 50 mM L-ascorbic acid, 100 μM Catalase (Sigma-Aldrich), 1 μM FeSO4 and 0.2 units of purified HPPD enzyme in a total volume of 505 μl. 1 unit is defined as the amount of enzyme that is required to produce 1 nmol of HGA per minute at 20° C.
Inhibitors are dissolved in DMSO (dimethylsulfoxide) to a concentration of 0.5 mM. […] IC50 values are calculated using non-linear regression. […]
Purified, mutant HPPD enzymes are obtained by the methods described above. […] Apparent michaelis constants (Km) and maximal reaction velocities (Vmax) are calculated by non-linear regression with the software GraphPad Prism 5 (GraphPad Software, La Jolla, USA) using a substrate inhibition model.
Field performance of the optimized HPPD enzyme, which is used as a herbicide tolerance trait may depend not only on its lack of sensitivity towards HPPD inhibiting herbicides but also on its activity. To assess the potential performance of a herbicide tolerance trait a tolerance index (TI) is calculated using the following formula: […]

SMILES	Injury evaluation, scale of 1-100, bleaching phenotype ([1]; 6.25 g/ha)	Injury evaluation, scale of 1-100, bleaching phenotype ([1]; 25 g/ha)	Injury evaluation, scale of 1-100, bleaching phenotype ([1]; 100 g/ha)	Injury evaluation, scale of 1-100, bleaching phenotype ([2]; 6.25 g/ha)	Injury evaluation, scale of 1-100, bleaching phenotype ([2]; 25 g/ha)	Injury evaluation, scale of 1-100, bleaching phenotype ([2]; 100 g/ha)	Normalized tolerance index TI [3]	Injury evaluation, scale of 1-100, bleaching phenotype ([1]; 2.5 g/ha)	Injury evaluation, scale of 1-100, bleaching phenotype ([1]; 10 g/ha)	Injury evaluation, scale of 1-100, bleaching phenotype ([1]; 40 g/ha)	Injury evaluation, scale of 1-100, bleaching phenotype ([2]; 2.5 g/ha)	Injury evaluation, scale of 1-100, bleaching phenotype ([2]; 10 g/ha)	Injury evaluation, scale of 1-100, bleaching phenotype ([2]; 40 g/ha)
Cc1c(C(=O)c2cnn(C)c2O)ccc(S(C)(=O)=O)c1C1=NOCC1 [Topramezone, reference compound]	10	17	21	0	0	1	–	–	–	–	–	–	–
CC1=NOC(c2c(Cl)ccc(C3=C(O)c4ncccc4C(C)(C)S3(=O)=O)c2Cl)C1 (centres unmarked) [Inhibitor 1, 7-[2,4-dichloro-3-(3-methyl-4,5-dihydroisoxazol-5-yl)phenyl]-5,5-dimethyl-6,6-dioxo-thiopyrano[4,3-b]pyridin-8-ol]	–	–	–	–	–	–	1.9	–	–	–	–	–	–
CC1(C)c2cccnc2C(O)=C(c2ccc(Cl)nc2Cl)S1(=O)=O [Inhibitor 2, 7-(2,6-dichloro-3-pyridyl)-5,5-dimethyl-6,6-dioxo-thiopyrano[4,3-b]pyridin-8-ol]	–	–	–	–	–	–	2.8	1	4	21	4	13	4
